One data set in a line: levels of seven dioxins and ten furans in squalene samples, as TEQs. The conditions noted are these: WHO 2005 TEFs; + = 1,2,3,4,6,7,8-HpCDD. The procedure: In addition to measuring PCB content, levels of seven dioxins and ten furans were measured. […] TEQs from PCBs, dioxins and furans for these samples were as follows, measured in pg/g according to WHO 2005 TEFs: […]
Consider `CC(C)=CCCC(C)=CCCC(C)=CCCC=C(C)CCC=C(C)CCC=C(C)C` [squalene, 2,6,10,15,19,23-hexamethyl-2,6,10,14,18,22-tetracosahexaene], for which the “TEQ from Dioxins” value is on record as 28.158 ^+ pg/g.

Test in another data set: not given
The conditions noted are these: WHO 2005 TEF values for PCBs in humans; fraction of the toxicity of 2,3,7,8-TCDD dioxin (reference value 1); cited from earlier work.
With `Clc1ccc(-c2cc(Cl)c(Cl)c(Cl)c2)cc1` [PCB #81, 3,4,4′,5-tetrachlorobiphenyl], the “TEF (toxic equivalency factor)” value is on record as 0.0003.

Take `Clc1ccc(-c2cc(Cl)c(Cl)c(Cl)c2)c(Cl)c1` [PCB #123]: the “TEF (toxic equivalency factor)” value is reported as 0.00003.

For the molecule `Clc1cc(-c2ccc(Cl)c(Cl)c2Cl)cc(Cl)c1Cl` [PCB #157], the “TEF (toxic equivalency factor)” value is reported as 0.00003.

As to `Clc1cc(-c2cc(Cl)c(Cl)c(Cl)c2)cc(Cl)c1Cl` [PCB #169, 3′,4,4′,5,5′-hexachlorobiphenyl], the “TEF (toxic equivalency factor)” value is reported as 0.03.

As for `Clc1cc(Cl)c(-c2cc(Cl)c(Cl)c(Cl)c2)cc1Cl` [PCB #167], the “TEF (toxic equivalency factor)” value is given as 0.00003.

As to `Clc1ccc(-c2cc(Cl)c(Cl)c(Cl)c2Cl)cc1Cl` [PCB #156], the “TEF (toxic equivalency factor)” value is listed as 0.00003.

For the molecule `Clc1cc(Cl)c(-c2cc(Cl)c(Cl)c(Cl)c2Cl)cc1Cl` [PCB #180], the “TEF (toxic equivalency factor)” value is recorded as 0.00001.

`Clc1ccc(-c2ccc(Cl)c(Cl)c2Cl)cc1Cl` [PCB #105]: the “TEF (toxic equivalency factor)” value is 0.00003.

Consider `Clc1ccc(-c2cc(Cl)c(Cl)cc2Cl)cc1Cl` [PCB #118], for which the “TEF (toxic equivalency factor)” value is reported as 0.00003.

Take `Clc1ccc(-c2cc(Cl)c(Cl)c(Cl)c2)cc1Cl` [PCB #126, 3,3′,4,4′,5-pentachlorobiphenyl]: the “TEF (toxic equivalency factor)” value was 0.1.

With `Clc1ccc(-c2cc(Cl)c(Cl)c(Cl)c2Cl)cc1` [PCB #114], the “TEF (toxic equivalency factor)” value is listed as 0.00003.

For `Clc1cc(-c2cc(Cl)c(Cl)c(Cl)c2Cl)cc(Cl)c1Cl` [PCB #189], the “TEF (toxic equivalency factor)” value was 0.00003.

Regarding `Clc1cc2c(cc1Cl)Oc1cc(Cl)c(Cl)cc1O2` [2,3,7,8-TCDD, reference compound], the “TEF (toxic equivalency factor)” value is 1.

As for `Clc1ccc(-c2ccc(Cl)c(Cl)c2)cc1Cl` [PCB #77, 3,3′,4,4′-tetrachlorobiphenyl], the “TEF (toxic equivalency factor)” value is 0.0001.

These data come from patent publication US9370570B2, “Polychlorinated biphenyls and squalene-containing adjuvants” (priority 2007, dated 2016).
